Assay [1] concerns HUVEC cells. Kind of assay: MTT assay, metabolic activity (cytotoxicity), normal cell line. It is filed as cell-based, human. Particulars: Homo sapiens, HUVEC, 48 h incubation, mean ± SEM. The procedure:
Metabolic activity by MTT assay
The MTT (3-([…])-2,5-diphenyl tetrazolium bromide) assay was performed to assess the cytotoxicity of the investigated compounds. Briefly, HL-60, MCF-7 and HUVEC cells were seeded in 24-well plates at density of 8 × 10^4/mL. After 24 h incubation, cells were treated with various concentrations of the compounds and incubated for another 24 h or 48 h. Then, the cells were incubated with MTT solution (100 µL; 5 mg/mL in PBS) for 1.5 h and centrifuged. The formazan product was dissolved in DMSO, and the absorption was measured using FlexStation 3 Multi-Mode Microplate Reader (Molecular Devices, LLC, San Jose, CA, USA) at 560 nm. Assays were performed twice in triplicate for each analog.
The cytotoxic activity of the obtained methylidenetetrahydropyran-4-ones was investigated in two cancer cell lines, human promyelocytic leukemia (HL-60) and breast cancer adenocarcinoma (MCF-7), and in healthy umbilical vein endothelial cells (HUVEC), for comparison. An anticancer drug, carboplatin, was used as a reference compound. Metabolic activity of the cells was assessed after 48 h incubation with various concentrations of the analogs (Table 6). Purity of all final compounds was determined on the basis of their ^1H NMR spectra (signal-to-noise ratio and presence of unidentified signals) and was at least 98%, in most cases even over 99%.
Background: Formazan colour is commonly taken as a measure of viable cells.

Assay [2] deals with HL-60 cells. Kind of assay: Cell cycle distribution, DAPI DNA staining and flow cytometry. Particulars: 24 h. It is filed as cell-based, human. The procedure:
Analysis of apoptosis, DNA damage and cell cycle
Apoptosis, DNA damage, proliferation and cell cycle kinetics were investigated using the Apoptosis, DNA Damage and Cell Proliferation Kit (BD Biosciences, San Jose, CA, USA) according to the manufacturer’s protocol. Briefly, HL-60 cells (2.0 × 10^5 cells/mL) were seeded in 6-well plates and left to grow for 24 h. Then, the cells were treated with 13d or 13g at IC50 and 2IC50 concentrations. After 24 h incubation, the cells were treated with BrdU solution for 8 h. Then, the cells were collected by centrifugation, fixed and permeabilized. To expose the incorporated BrdU, the cells were incubated with DNase (300 µg/mL in PBS) for 1 h at 37 °C. Afterwards, the cells were stained with fluorescent antibodies, including Anti-BrdU, Anti-Cleaved PARP (Asp214) and Anti-H2AX (pS139) for 20 min at room temperature. Total DNA for cell cycle analysis was stained using DAPI solution (1 µg/mL in staining buffer). Finally, the cells were analyzed by flow cytometry using CytoFLEX (Beckman Coulter, Inc., Brea, CA, USA) and the data analysis was performed with Kaluza Analysis Software v2 (Beckam Coulter, Inc., Brea, CA. USA).
The cell cycle has a critical role in regulation of cell growth, proliferation and division of cells after DNA damage. Therefore, it often serves as a target in cancer therapy development. The cell cycle distribution was investigated using DAPI DNA staining and flow cytometry analysis.

Assay [3] concerns the target T1, human topoisomerase IIα (Homo sapiens, UniProt P11388).
T1 construct: purchased Inspiralis, Norwich, UK
The assay can be described thus: Human Topoisomerase II Decatenation Assay (kDNA). The format is biochemical. Particulars: for inhibition of topoisomerase II activity: 0.5 mM and 1 mM concentrations, 30 min at 37 °C. The procedure:
Topoisomerase IIα activity
Topoisomerase IIα activity inhibition was assessed using the Human Topoisomerase II Decatenation Assay (Inspiralis, Norwich, UK). Briefly, kDNA was incubated with ATP, assay buffer (50 mM Tris-HCl pH 7.5, 125 mM NaCl, 10 mM MgCl2, 5 mM DTT, 100 µg/mL albumin), human topoisomerase II enzyme and various concentrations of the investigated compounds for 30 min at 37 °C. The reaction was stopped by addition of STEB (40% (w/v) sucrose, 100 mM Tris-HCl pH 8, 1 mM EDTA, 0.5 mg/mL bromophenol blue) followed by DNA extraction with chloroform/iso-amyl alcohol mixture (24:1). The samples were loaded onto a 1% agarose gel and run in a TBE buffer at 85 V for 65 min. Gels were stained with ethidium bromide (1 µg/mL) for 15 min, destained in water and visualized with a transilluminator (ChemiDoc MP Imaging System, Bio-Rad, Hercules, CA, USA).
The ability of the analogs to inhibit topoisomerase II activity was investigated by measuring decatenation of kinetoplast DNA (kDNA) by human topoisomerase IIα. Topoisomerase II has the ability to decatenate interlinked dsDNA minicircles.

This is an account of results in PMC9105583, “Stereoselective Synthesis and Anticancer Activity of 2,6-Disubstituted trans-3-Methylidenetetrahydropyran-4-ones” (Materials, 2022).

Molecules are shown by their SMILES.

T1 sequence (P11388 whole entry): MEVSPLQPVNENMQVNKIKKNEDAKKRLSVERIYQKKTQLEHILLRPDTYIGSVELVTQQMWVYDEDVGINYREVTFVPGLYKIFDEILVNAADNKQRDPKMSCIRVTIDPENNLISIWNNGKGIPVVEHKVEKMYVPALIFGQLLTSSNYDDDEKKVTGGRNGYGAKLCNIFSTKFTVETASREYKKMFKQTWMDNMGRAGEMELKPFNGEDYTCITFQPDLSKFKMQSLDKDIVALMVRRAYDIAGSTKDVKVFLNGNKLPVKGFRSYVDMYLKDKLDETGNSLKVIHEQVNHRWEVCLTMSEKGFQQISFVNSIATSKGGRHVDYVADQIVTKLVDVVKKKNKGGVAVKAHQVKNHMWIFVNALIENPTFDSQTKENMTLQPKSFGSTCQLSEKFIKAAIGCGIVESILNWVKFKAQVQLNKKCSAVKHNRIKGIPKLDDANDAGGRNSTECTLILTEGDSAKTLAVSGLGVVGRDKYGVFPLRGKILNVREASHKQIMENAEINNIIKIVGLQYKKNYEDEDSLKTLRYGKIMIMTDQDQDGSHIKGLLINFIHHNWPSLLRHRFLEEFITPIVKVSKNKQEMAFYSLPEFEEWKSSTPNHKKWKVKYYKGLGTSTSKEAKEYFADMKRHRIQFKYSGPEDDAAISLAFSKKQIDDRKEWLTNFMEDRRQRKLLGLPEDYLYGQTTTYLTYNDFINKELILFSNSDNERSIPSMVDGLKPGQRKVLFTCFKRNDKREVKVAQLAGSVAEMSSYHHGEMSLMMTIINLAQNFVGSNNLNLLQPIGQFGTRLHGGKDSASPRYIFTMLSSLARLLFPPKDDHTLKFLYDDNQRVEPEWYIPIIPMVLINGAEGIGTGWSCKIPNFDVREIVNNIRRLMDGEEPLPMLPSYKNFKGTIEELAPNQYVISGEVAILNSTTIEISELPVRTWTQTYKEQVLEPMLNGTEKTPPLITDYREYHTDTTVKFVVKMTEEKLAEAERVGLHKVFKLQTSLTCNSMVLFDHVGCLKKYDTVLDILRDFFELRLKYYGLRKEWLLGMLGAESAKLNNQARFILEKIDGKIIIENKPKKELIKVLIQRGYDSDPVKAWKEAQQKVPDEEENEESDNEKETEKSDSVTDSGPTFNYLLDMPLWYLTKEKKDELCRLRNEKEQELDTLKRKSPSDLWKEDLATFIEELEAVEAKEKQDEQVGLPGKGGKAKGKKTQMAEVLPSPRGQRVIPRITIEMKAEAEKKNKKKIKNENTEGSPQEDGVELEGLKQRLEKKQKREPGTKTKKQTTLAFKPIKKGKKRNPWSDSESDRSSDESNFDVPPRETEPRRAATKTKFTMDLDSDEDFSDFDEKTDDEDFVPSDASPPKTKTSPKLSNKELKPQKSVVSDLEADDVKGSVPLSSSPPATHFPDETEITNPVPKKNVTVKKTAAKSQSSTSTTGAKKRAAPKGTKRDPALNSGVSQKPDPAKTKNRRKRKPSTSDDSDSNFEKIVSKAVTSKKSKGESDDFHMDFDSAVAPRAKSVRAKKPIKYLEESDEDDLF

By IC50 is commonly meant the concentration at which inhibition is half-maximal. A lower IC50 goes with inhibition by little substance. `C=C1C(=O)C[C@H](c2ccccc2)O[C@H]1C(C)C` (relative stereo) [Analog 13g, Trans-2-isopropyl-3-methylidene-6-phenyltetrahydro-4H-pyran-4-one] had an IC50 in assay [1] of 3.84 ± 0.01 µM. In addition, the “change of G2/M cell population” value in assay [2] (not statistically significant) was “slight increase”. Besides, the “inhibition of topoisomerase II activity” value in assay [3] is reported as “inhibited topoisomerase II activity”. For the same compound, the “inhibitory activity towards topoisomerase IIα compared with 13d” value in assay [3] (0.5 and 1 mM) is recorded as “stronger inhibitory activity”.

With `C=C1C(=O)C[C@H](C(C)C)O[C@H]1C(C)C` (relative stereo) [Analog 13d, Trans-2,6-diisopropyl-3-methylidenetetrahydro-4H-pyran-4-one], the IC50 in assay [1] was 24.7 ± 0.65 µM. For the same compound, the “population of cells in G0/G1 phase” value in assay [2] (compound at 2IC50 concentration) was “diminished”. In assay [2] (compound at 2IC50 concentration, control 14.9 ± 1.37%), the “cells in the G2/M phase” value turned out to be 24.1 ± 1.40%. Besides, the “inhibition of topoisomerase II activity” value in assay [3] was “inhibited topoisomerase II activity”.
